Patent publication US20220202696A1, “AGENT FOR PROMOTING COLLAGEN PRODUCTION, MEDICAMENT, COSMETIC, AND METHOD FOR MANUFACTURING AGENT FOR PROMOTING COLLAGEN PRODUCTION” (Murata Manufacturing Co., Ltd., priority 2019, published 2022)

Test system: Normal human dermal fibroblasts
Experiment: Type I collagen production in aging induction-treated fibroblasts (ELISA)
Format: cell-based
Conditions: positive control at 25 μmol/L, 48 hours culture, aging induction-treated cells, ELISA of medium
Protocol: Normal human dermal fibroblasts were maintained using a DMEM medium (+5% FBS) in a culture vessel to confluence. […] After this procedure was repeated once daily for 4 days, the cells were further cultured in DMEM (10% FBS) for 3 days, and the cultured cells were obtained and used as aging induction-treated cells. The aging induction of the cells was confirmed by senescence-associated beta-galactosidase (SA-β-Gal, an aging marker) staining. The aging induction-treated cells were seeded in 48-well plate at a cell density of 5.0×10^4 cells/well using a DMEM medium (+5% FBS). […] Then, the cells were cultured for 48 hours, thereafter the medium was collected, and the amount of type I collagen in the medium was quantified by an ELISA method (direct ELISA using an anti-Human Collagen Type I antibody (Rabbit)).

O=C1O[C@H]([C@@H](O)CO)C(O)=C1O [vitamin C]
production of type I collagen: increased
